# Laboratory results taken from US20250312499A1, “KISSPEPTIN RECEPTOR (KISS1R) TARGETED THERAPEUTICS AND USES THEREOF” (priority 2024, published 2025).
# Square brackets hold non-standard residues; d marks the D form. Peptide text beside a SMILES is read from it. * marks the point of attachment. DOTA = O=C(O)CN1CCN(CC(=O)O)CCN(CC(=O)*)CCN(CC(=O)O)CC1; Butanoyl(4-(4-I-phenyl)) = O=C(CCCc1ccc(I)cc1)*; Butanoyl(4-(4-MePh)) = Cc1ccc(CCCC(=O)*)cc1; Api(1-amidino) = N=C(N)N1CCC(N)(C(=O)O)CC1; Hydrocinnamoyl(4-Me) = Cc1ccc(CCC(=O)*)cc1; Hydrocinnamoyl(4-I) = O=C(CCc1ccc(I)cc1)*; Phe(4-CN) = N#Cc1ccc(C[C@H](N)C(=O)O)cc1; d2Nal = N[C@H](Cc1ccc2ccccc2c1)C(=O)O; Palmitoyl = CCCCCCCCCCCCCCCC(=O)*; Cha = N[C@@H](CC1CCCCC1)C(=O)O; Lauroyl = CCCCCCCCCCCC(=O)*; Octanoyl = CCCCCCCC(=O)*; Api = NC1(C(=O)O)CCNCC1; PEG2 = NCCOCCOCCC(=O)O; Ahx = NCCCCCC(=O)O; azaGly = NNC(=O)O
# Target: human kisspeptin receptor (Homo sapiens (Human), UniProt Q969F8)
# Sequence (Q969F8 whole entry): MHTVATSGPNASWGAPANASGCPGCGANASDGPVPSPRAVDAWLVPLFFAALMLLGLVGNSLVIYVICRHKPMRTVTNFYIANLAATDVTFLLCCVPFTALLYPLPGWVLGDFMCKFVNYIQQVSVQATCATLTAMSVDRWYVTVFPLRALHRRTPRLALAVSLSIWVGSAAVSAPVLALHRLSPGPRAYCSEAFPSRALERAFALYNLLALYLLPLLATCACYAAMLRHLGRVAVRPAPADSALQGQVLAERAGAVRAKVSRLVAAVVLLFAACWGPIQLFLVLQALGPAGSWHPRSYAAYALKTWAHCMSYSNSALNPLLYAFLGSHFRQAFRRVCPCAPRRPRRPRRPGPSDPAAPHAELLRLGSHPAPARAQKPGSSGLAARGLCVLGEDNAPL
# Assay: Human KISS1R binding assay (membrane competition binding)
# Details: 90 min at room temperature; competition with 0.2 nM [125I]-metastin (45-54); Flp-In T-Rex 293 kisspeptin membranes; metal complexes nonradioactive Ga, In, Lu; read-out: hKiSSR Binding Ki (90 min)
# How it was run: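 Membranes from tetracycline-induced (48 h) Flp-In T-Rex 293 cells expressing receptor, 5–10 μg, incubated 90 min at room temperature with 0.2 nM [125I]-metastin (45-54) and competitor (typically 0–10,000 nM) in Tris/Mg/Ca/EGTA/0.1% BSA, pH 7.4. Filtration, washing, counting; Ki by non-linear regression.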
row,Ki,SMILES
1,< 10 nM,CC(C)C[C@H](NC(=O)NNC(=O)[C@H](CC1CCCCC1)NC(=O)[C@@H](NC(=O)[C@H](CC(N)=O)NC(=O)[C@H](CCCCNC(=O)CN1CCN(CC(=O)O)CCN(CC(=O)O)CCN(CC(=O)O)CC1)NC(=O)[C@@H](Cc1ccc(O)cc1)NC(=O)CCOCCOCCNC(=O)CCc1ccc(I)cc1)[C@@H](C)O)C(=O)NC1(C(=O)N[C@@H](Cc2c[nH]c3ccccc23)C(N)=O)CCN(C(=N)N)CC1 [Compound 327] ({Hydrocinnamoyl(4-I)-PEG2}-[dY]K(DOTA)NT[Cha][azaGly]L[Api(1-amidino)]W-NH2)
2,< 10 nM,CCCCCCCCCCCCCCCC(=O)N[C@H](Cc1ccc(O)cc1)C(=O)N[C@@H](CCCCNC(=O)CN1CCN(CC(=O)O)CCN(CC(=O)O)CCN(CC(=O)O)CC1)C(=O)N[C@@H](CC(N)=O)C(=O)N[C@H](C(=O)N[C@@H](Cc1ccccc1)C(=O)NNC(=O)N[C@@H](CC(C)C)C(=O)NC1(C(=O)N[C@@H](Cc2ccc(O)cc2)C(N)=O)CCN(C(=N)N)CC1)[C@@H](C)O [Compound 330] (Palmitoyl-[dY]K(DOTA)NTF[azaGly]L[Api(1-amidino)]Y-NH2)
3,< 10 nM,CCCCCCCCCCCC(=O)N[C@H](Cc1ccc(O)cc1)C(=O)N[C@@H](CCCCNC(=O)CN1CCN(CC(=O)O)CCN(CC(=O)O)CCN(CC(=O)O)CC1)C(=O)N[C@@H](CC(N)=O)C(=O)N[C@H](C(=O)N[C@@H](Cc1ccccc1)C(=O)NNC(=O)N[C@@H](CC(C)C)C(=O)NC1(C(=O)N[C@@H](Cc2ccc(O)cc2)C(N)=O)CCN(C(=N)N)CC1)[C@@H](C)O [Compound 331] (Lauroyl-[dY]K(DOTA)NTF[azaGly]L[Api(1-amidino)]Y-NH2)
4,< 10 nM,CC(C)C[C@H](NC(=O)NNC(=O)[C@H](Cc1ccccc1)NC(=O)[C@@H](NC(=O)[C@H](CC(N)=O)NC(=O)[C@@H](CCCCNC(=O)CN1CCN(CC(=O)O)CCN(CC(=O)O)CCN(CC(=O)O)CC1)NC(=O)[C@@H](Cc1ccc(O)cc1)NC(=O)CCOCCOCCNC(=O)CCc1ccc(I)cc1)[C@@H](C)O)C(=O)NC1(C(=O)N[C@@H](Cc2c[nH]c3ccccc23)C(N)=O)CCN(C(=N)N)CC1 [Compound 334] ({Hydrocinnamoyl(4-I)-PEG2}-[dY][dK](DOTA)NTF[azaGly]L[Api(1-amidino)]W-NH2)
5,< 10 nM,Cc1ccc(CCCC(=O)NCCCC[C@@H](NC(=O)CCCCCNC(=O)CN2CCN(CC(=O)O)CCN(CC(=O)O)CCN(CC(=O)O)CC2)C(=O)N[C@H](Cc2ccc(O)cc2)C(=O)N[C@H](Cc2ccc3ccccc3c2)C(=O)N[C@@H](CC(N)=O)C(=O)N[C@H](C(=O)N[C@@H](Cc2ccccc2)C(=O)NNC(=O)N[C@@H](CC(C)C)C(=O)NC2(C(=O)N[C@@H](Cc3c[nH]c4ccccc34)C(N)=O)CCN(C(=N)N)CC2)[C@@H](C)O)cc1 [Compound 335] ({DOTA-Ahx}-[dK](Butanoyl(4-(4-MePh)))[dY][d2Nal]NTF[azaGly]L[Api(1-amidino)]W-NH2)
6,< 10 nM,CC(C)C[C@H](NC(=O)NNC(=O)[C@H](Cc1ccccc1)NC(=O)[C@@H](NC(=O)[C@H](CC(N)=O)NC(=O)[C@@H](Cc1ccc2ccccc2c1)NC(=O)[C@@H](Cc1ccc(O)cc1)NC(=O)CCCCCNC(=O)CN1CCN(CC(=O)O)CCN(CC(=O)O)CCN(CC(=O)O)CC1)[C@@H](C)O)C(=O)NC1(C(=O)N[C@H](Cc2c[nH]c3ccccc23)C(N)=O)CCNCC1 [Compound 339] ({DOTA-Ahx}-[dY][d2Nal]NTF[azaGly]L[Api][dW]-NH2)

# The next lines start with the compound.
row,SMILES,Ki
1,CCCCCCCCCCCCCCCC(=O)N[C@H](Cc1ccc(O)cc1)C(=O)N[C@@H](CCCCNC(=O)CN1CCN(CC(=O)O)CCN(CC(=O)O)CCN(CC(=O)O)CC1)C(=O)N[C@@H](CC(N)=O)C(=O)N[C@H](C(=O)N[C@@H](Cc1ccccc1)C(=O)NNC(=O)N[C@@H](CC(C)C)C(=O)NC1(C(=O)N[C@@H](Cc2c[nH]c3ccccc23)C(N)=O)CCN(C(=N)N)CC1)[C@@H](C)O [Compound 328] (Palmitoyl-[dY]K(DOTA)NTF[azaGly]L[Api(1-amidino)]W-NH2),< 10 nM
2,CCCCCCCCCCCC(=O)N[C@H](Cc1ccc(O)cc1)C(=O)N[C@@H](CCCCNC(=O)CN1CCN(CC(=O)O)CCN(CC(=O)O)CCN(CC(=O)O)CC1)C(=O)N[C@@H](CC(N)=O)C(=O)N[C@H](C(=O)N[C@@H](Cc1ccccc1)C(=O)NNC(=O)N[C@@H](CC(C)C)C(=O)NC1(C(=O)N[C@@H](Cc2c[nH]c3ccccc23)C(N)=O)CCN(C(=N)N)CC1)[C@@H](C)O [Compound 329] (Lauroyl-[dY]K(DOTA)NTF[azaGly]L[Api(1-amidino)]W-NH2),< 10 nM
3,CCCCCCCC(=O)N[C@H](Cc1ccc(O)cc1)C(=O)N[C@@H](CCCCNC(=O)CN1CCN(CC(=O)O)CCN(CC(=O)O)CCN(CC(=O)O)CC1)C(=O)N[C@@H](CC(N)=O)C(=O)N[C@H](C(=O)N[C@@H](Cc1ccccc1)C(=O)NNC(=O)N[C@@H](CC(C)C)C(=O)NC1(C(=O)N[C@@H](Cc2ccc(O)cc2)C(N)=O)CCN(C(=N)N)CC1)[C@@H](C)O [Compound 332] (Octanoyl-[dY]K(DOTA)NTF[azaGly]L[Api(1-amidino)]Y-NH2),< 10 nM
4,Cc1ccc(CCC(=O)NCCOCCOCCC(=O)N[C@H](Cc2ccc(O)cc2)C(=O)N[C@@H](CCCCNC(=O)CN2CCN(CC(=O)O)CCN(CC(=O)O)CCN(CC(=O)O)CC2)C(=O)N[C@@H](CC(N)=O)C(=O)N[C@H](C(=O)N[C@@H](Cc2ccccc2)C(=O)NNC(=O)N[C@@H](CC(C)C)C(=O)NC2(C(=O)N[C@@H](Cc3ccc(C#N)cc3)C(N)=O)CCN(C(=N)N)CC2)[C@@H](C)O)cc1 [Compound 333] ({Hydrocinnamoyl(4-Me)-PEG2}-[dY]K(DOTA)NTF[azaGly]L[Api(1-amidino)][Phe(4-CN)]-NH2),< 10 nM
5,CC(C)C[C@H](NC(=O)NNC(=O)[C@H](Cc1ccccc1)NC(=O)[C@@H](NC(=O)[C@H](CC(N)=O)NC(=O)[C@@H](Cc1ccc2ccccc2c1)NC(=O)[C@@H](Cc1ccc(O)cc1)NC(=O)[C@@H](CCCCNC(=O)CCCc1ccc(I)cc1)NC(=O)CCCCCNC(=O)CN1CCN(CC(=O)O)CCN(CC(=O)O)CCN(CC(=O)O)CC1)[C@@H](C)O)C(=O)NC1(C(=O)N[C@@H](Cc2c[nH]c3ccccc23)C(N)=O)CCN(C(=N)N)CC1 [Compound 336] ({DOTA-Ahx}-[dK](Butanoyl(4-(4-I-phenyl)))[dY][d2Nal]NTF[azaGly]L[Api(1-amidino)]W-NH2),< 10 nM
6,CC(C)C[C@H](NC(=O)NNC(=O)[C@H](Cc1ccccc1)NC(=O)[C@@H](NC(=O)[C@H](CC(N)=O)NC(=O)[C@@H](Cc1ccc2ccccc2c1)NC(=O)[C@@H](Cc1ccc(O)cc1)NC(=O)CCCCCNC(=O)[C@@H](CCCCNC(=O)CCCc1ccc(I)cc1)NC(=O)CCCCCNC(=O)CN1CCN(CC(=O)O)CCN(CC(=O)O)CCN(CC(=O)O)CC1)[C@@H](C)O)C(=O)NC1(C(=O)N[C@@H](Cc2c[nH]c3ccccc23)C(N)=O)CCN(C(=N)N)CC1 [Compound 337] ({DOTA-Ahx}-[dK](Butanoyl(4-(4-I-phenyl)))[Ahx][dY][d2Nal]NTF[azaGly]L[Api(1-amidino)]W-NH2),< 10 nM
7,Cc1ccc(CCC(=O)NCCOCCOCCC(=O)N[C@H](Cc2ccc(O)cc2)C(=O)N[C@H](CCCCNC(=O)CN2CCN(CC(=O)O)CCN(CC(=O)O)CCN(CC(=O)O)CC2)C(=O)N[C@@H](CC(N)=O)C(=O)N[C@H](C(=O)N[C@@H](Cc2ccccc2)C(=O)NNC(=O)N[C@@H](CC(C)C)C(=O)NC2(C(=O)N[C@@H](Cc3c[nH]c4ccccc34)C(N)=O)CCN(C(=N)N)CC2)[C@@H](C)O)cc1 [Compound 338] ({Hydrocinnamoyl(4-Me)-PEG2}-[dY][dK](DOTA)NTF[azaGly]L[Api(1-amidino)]W-NH2),< 10 nM
